Results as given in publication PMC9458978, “Design, synthesis and biological evaluation of novel biphenylsulfonamide derivatives as selective AT2 receptor antagonists” (Frontiers in Chemistry, 2022).
“Also recorded” adds a separate entry of the source.

Assays:
AT2 receptor [1] = target: T1, AT2 receptor (Homo sapiens, UniProt P50052); assay: HEK-293 cell AT2 receptor binding assay ([125I]-CGP42112 displacement, HEK293-hAT2R)
T1 construct: expressed in transfected cells; host or cells: HEK-293
T1 sequence (P50052 1-363): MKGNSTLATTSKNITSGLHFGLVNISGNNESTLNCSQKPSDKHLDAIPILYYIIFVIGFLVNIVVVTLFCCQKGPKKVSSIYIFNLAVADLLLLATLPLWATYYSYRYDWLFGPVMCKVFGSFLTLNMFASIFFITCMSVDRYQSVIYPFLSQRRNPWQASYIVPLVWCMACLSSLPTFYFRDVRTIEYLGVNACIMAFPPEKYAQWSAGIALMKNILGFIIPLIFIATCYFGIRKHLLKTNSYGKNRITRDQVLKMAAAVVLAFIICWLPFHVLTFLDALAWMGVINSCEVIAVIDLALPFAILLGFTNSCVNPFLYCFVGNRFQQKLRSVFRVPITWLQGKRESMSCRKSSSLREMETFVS
Experimental: All of above methods were widely accepted and used to evaluate the binding activity of AT1 and AT2 receptors.
The lysis solution was mixed and centrifuged at 12,000 g for 10 min at 4°C. Details are shown in the Supplementary Material.
After HEK-293 cells were transfected with AT2 receptor, lysis buffer (150 mM NaCl, 0.1% Triton X-100, 50 mM Tris-HCl, 1 mM EDTA, protease inhibitor) was used to separate the cell membrane of HEK-293 cells[2],using 27-G Resuspend and mix the lysis solution, and centrifuge at 12,000 g for 10 minutes at 4 °C. The supernatant was collected and centrifuged for a further 60 minutes. The precipitated membrane extracts were buffered (150 mM NaCl, 10 mM MgCl2, 0.5 % SDS, 1 % Triton X-100, 50 mM Tris-Cl, 1 mM EDTA, protease inhibitor ) for resuspension. […]
mL containing 50 mM Tris-HCl (pH 7.4), 100 mM NaCl, 10 mM MgCl2, 1 mM […]
cpm, 0.03 nM), and variable concentrations of test substance. Samples were incubated at 25 ℃ for 2 h, and binding was terminated by filtration through Whatman GF/B glass-fiber filter sheets, which had been presoaked overnight with 0.3 % polyethylamine, using a Brandel cell harvester. The filterswere washed with 3×3 mL of Tris-HCl (pH 7.4) and transferred to tubes. The radioactivity was measured in a γ-counter. The characteristics of the Ang II binding AT1 receptor was determined by […]
Nonspecific binding was determined in the presence of 1 µM Ang II.The specific binding was determined by subtracting the nonspecific binding from the total bound The apparent dissociation constant Ki values were calculated from IC50 values using the Cheng-Prusoff equation. […]
(§1) one-site fit.All determinations were performed in triplicate. […]

AT1 receptor = target: T2, AT1 receptor (Rattus norvegicus, UniProt P25095); assay: Rat liver membrane AT1 receptor binding assay ([125I]-Ang II displacement); details: displacement of [125I]-Ang II, rat liver membranes; means ± SE, triplicate; read-out: Ki (nM) AT1R
T2 construct: Rat liver membranes were prepared according to the method of Dudley et al; from tissue; host or cells: rat liver membranes
T2 sequence (P25095 whole entry): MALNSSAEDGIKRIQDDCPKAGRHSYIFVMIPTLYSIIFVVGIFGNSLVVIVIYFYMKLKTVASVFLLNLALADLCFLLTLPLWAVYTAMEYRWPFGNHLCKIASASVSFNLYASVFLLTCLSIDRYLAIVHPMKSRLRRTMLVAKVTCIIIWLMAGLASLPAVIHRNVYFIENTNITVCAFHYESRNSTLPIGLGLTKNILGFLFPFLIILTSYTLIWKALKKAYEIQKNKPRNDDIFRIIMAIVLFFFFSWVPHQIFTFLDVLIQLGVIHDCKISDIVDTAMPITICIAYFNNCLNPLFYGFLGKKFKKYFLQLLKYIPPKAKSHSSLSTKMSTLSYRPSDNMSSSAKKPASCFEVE
Experimental: The target compounds were evaluated for AT1 receptor binding affinity by displacement of [^125I]-Ang II from the AT1 receptor in rat liver membranes. The radio-iodinated AT2 receptor selective ligand [^125I]-CGP42112 was used to study AT2 receptor binding affinity in HEK-293 cells (HEK293-hAT2R) ([Dudley et al., 1990]; [Whitebread et al., 1991]). All of above methods were widely accepted and used to evaluate the binding activity of AT1 and AT2 receptors.
Rat liver membranes were prepared according to the method of Dudley et al ([Dudley et al., 1990]). After HEK-293 cells were transfected with the AT2 receptor, a lysis buffer was used to separate the cell membrane of HEK-293 cells ([Grieger et al., 2016]), using 27-G Resuspend. The lysis solution was mixed and centrifuged at 12,000 g for 10 min at 4°C. Details are shown in the Supplementary Material.
3. Radioligand binding assay steps
3.1 Rat Liver Membrane AT1 Receptor Binding Assay.
Rat liver membranes were prepared according to the method of Dudley et al[1].
Binding of [125I]-Ang II to membranes was conducted in a final volume of 0.5 mL containing 50 mM Tris-HCl (pH 7.4), 100 mM NaCl, 10 mM MgCl2, 1 mM EDTA, 0.025% bacitracin, 0.2% BSA (bovine serum albumin), liver homogenate corresponding to 5 mg of the original tissue weight, [125I]-Ang II (80000-85 000 cpm, 0.03 nM), and variable concentrations of test substance. Samples were incubated at 25 ℃ for 2 h, and binding was terminated by filtration through Whatman GF/B glass-fiber filter sheets, which had been presoaked overnight with 0.3 % polyethylamine, using a Brandel cell harvester. The filterswere washed with 3×3 mL of Tris-HCl (pH 7.4) and transferred to tubes. The radioactivity was measured in a γ-counter. The characteristics of the Ang II binding AT1receptor was determined by using six different concentrations (0.03-5 nmol/L) of the labeled [125I]-Ang II.
Nonspecific binding was determined in the presence of 1 µM Ang II.The specific binding was determined by subtracting the nonspecific binding from the total bound [125I]-Ang II.The apparent dissociation constant Ki values were calculated from IC50 values using the Cheng-Prusoff equation. […]
as §1

AT2 receptor [2] = assay: Neurite outgrowth assay with NG108-15 cells (AT2 receptor function assay); details: for Function (AT2 receptor agonist / antagonist): 3-day treatment, 10 or 100 nM, with or without PD-123,319 (10 uM) or Ang II
Experimental: The ratio of cell neurite outgrowth was used to evaluate, and the details are shown in the Supplementary Material.
NG108-15 cells (China Center for Type Culture Collection CCTCC) were used to study the in vitro morphological effects. In their undifferentiated state, neuroblastoma × glioma hybrid NG108-15 cells havea rounded shape and divide actively. The cells were cultured from passage 18–25 in Dulbecco’s modified Eagle’s medium (DMEM, Gibco BRL, Thermo Fisher Technology (China) Co., Ltd, China) with 10% fetal bovine serum (FBS, Gibco), HAT supplement and 50 mg L^−1 gentamycin at 37°C in 75 cm^2 Nunclon Delta flasks in a humidified atmosphere of 95% air and 5% CO2, as previously described ([Buisson et al., 1992]). Subcultures were performed at subconfluency. Under these conditions, cells express mainly the AT2 receptor subtype ([Whitebread et al., 1991]). Cells were treated during 3 days, once a day (first treatment 24 h after plating), and micrographs were taken on the fourth day. The details of experimental grouping and administration method are shown in the Supplementary Material. […]
4. NG108-15 cell experiment steps […]
peptidic AT2 receptor agonist CGP-42112A induces neurite outgrowth. The […]
plated as described in the Experimental Section, and adequate test concentrations for […]
each compound were determined by testing a dilution series of each compound […]
ranging from 1 pM to 1 uM.
The chemicals used in the present study were obtained from the following sources: Dulbecco’s modified Eagle’s medium (DMEM), heat-inactivated fetal bovine serum (FBS), HAT supplement (hypoxanthine, aminopterin, thymidine), gentamycin from Gibco BRL (Burlington, Ontario, Canada), and Ang II from MedChemExpress

AT2R = details: Figure 5, tetrahydroisoquinoline antagonists, ref Smith et al., 2013, Rice et al., 2014, Smith and Muralidharan, 2015, 2016; cited from earlier work

SMILES: CCCCc1ccc(S(=O)(=O)NC(=O)OC(C)C)c(-c2cccc(Cn3cncn3)c2)c1 [8h, Isopropyl((3'-((1H-1,2,4-triazol-1-yl)methyl)-5-butyl-[1,1′-biphenyl]-2-yl)sulfonyl)carbamate]
- Ki (AT2 receptor [1]): 82.9 ± 1.19 nM
- Ki (AT1 receptor): 1505 ± 1.11 nM
- Function (AT2 receptor agonist / antagonist) (AT2 receptor [2]): antagonistic activity; also recorded: antagonist activity
- evidence of cell death (AT2 receptor [2]; dilution series 1 pM to 1 uM, seen only at the highest concentration): evidence of cell death

SMILES: CCCCOc1ccc(S(=O)(=O)NC(=O)CCCC)c(-c2cccc(Cn3cncn3)c2)c1 [8i, N-((3'-((1H-1,2,4-triazol-1-yl)methyl)-5-butoxy-[1,1′-biphenyl]-2-yl)sulfonyl)pentanamide]
- Ki (AT2 receptor [1]): 199.6 ± 1.17 nM
- Ki (AT1 receptor): 1250 ± 1.12 nM
- Function (AT2 receptor agonist / antagonist) (AT2 receptor [2]): antagonistic activity; also recorded: AT2R antagonist; also recorded: antagonist activity

SMILES: CCCCOC(=O)NS(=O)(=O)c1ccc(OCCCC)cc1-c1cccc(Cn2cncn2)c1 [8j, Butyl((3'-((1H-1,2,4-triazol-1-yl)methyl)-5-butoxy-[1,1′-biphenyl]-2-yl)sulfonyl)carbamate]
- Ki (AT2 receptor [1]): 620.1 ± 1.27 nM
- Ki (AT1 receptor): 889.3 ± 1.24 nM
- Function (AT2 receptor agonist / antagonist) (AT2 receptor [2]): agonistic activity; also recorded: agonist activity; also recorded: AT2R agonist

SMILES: CCCCOc1ccc(S(=O)(=O)NC(=O)OCC(C)C)c(-c2cccc(Cn3cncn3)c2)c1 [8k, Isobutyl((3'-((1H-1,2,4-triazol-1-yl)methyl)-5-butoxy-[1,1′-biphenyl]-2-yl)sulfonyl)carbamate]
- Ki (AT2 receptor [1]): 712.5 ± 1.17 nM
- Ki (AT1 receptor): 775 ± 1.08 nM
- Function (AT2 receptor agonist / antagonist) (AT2 receptor [2]): antagonistic activity; also recorded: AT2R antagonist; also recorded: antagonist activity

SMILES: CCCCOc1ccc(S(=O)(=O)NC(=O)OC(C)C)c(-c2cccc(Cn3cncn3)c2)c1 [8l, Isopropyl((3'-((1H-1,2,4-triazol-1-yl)methyl)-5-butoxy-[1,1′-biphenyl]-2-yl)sulfonyl)carbamate]
- Ki (AT2 receptor [1]): 56.6 ± 1.16 nM
- Ki (AT1 receptor): 2005 ± 1.16 nM
- Function (AT2 receptor agonist / antagonist) (AT2 receptor [2]): antagonistic activity; also recorded: AT2R antagonist; also recorded: antagonist activity

SMILES: CCCCc1ccc(S(=O)(=O)NC(=O)OC(C)C)c(-c2cccc(Cn3cccn3)c2)c1 [9h, Isopropyl((3'-((1H-pyrazol-1-yl)methyl)-5-butyl-[1,1′-biphenyl]-2-yl)sulfonyl)carbamate]
- Ki (AT2 receptor [1]): 138 ± 1.34 nM
- Ki (AT1 receptor): 1723 ± 1.07 nM
- Function (AT2 receptor agonist / antagonist) (AT2 receptor [2]): antagonistic activity; also recorded: Antagonist

SMILES: COc1ccc(Cn2cnc3c2C[C@@H](C(=O)O)N(C(=O)C(c2ccccc2)c2ccccc2)C3)cc1C [EMA300]
- Ki (AT2R): 28 nM
